In patent US20100168090A1, “Active Ingredient Combinations With Insecticidal and Acaricidal Properties” (BAYER CROPSCIENCE AG, priority 2006, published 2010):

What was measured:
Assay type in all cases: in vivo
[1] = test system: green peach aphid (Myzus persicae); test: Myzus persicae test (cabbage leaves dipped); settings: single active compound; for Kill in % after 1 d: Table A 1
From the text: (§1) The expected action for a given combination of two active compounds can be calculated as follows, according to S. R. Colby, Weeds 15 (1967), 20-22:
(§2) If • X is the kill rate, expressed as a percentage of the untreated control, when employing active compound A at an application rate of m g/ha or in a concentration of m ppm, • Y is the kill rate, expressed as a percentage of the untreated control, when employing active compound B at an application rate of n g/ha or in a concentration of n ppm and • E is the kill rate, expressed as a percentage of the untreated control, when employing active compounds A and B at application rates of m and n g/ha or in a concentration of m and n ppm, then
(§3) If the actual kill rate exceeds the calculated value, the kill of the combination is superadditive, i.e. a synergistic effect is present. In this case, the actually observed kill rate must exceed the value calculated using the above formula for the expected kill rate (E).
(§4) Solvent: 7 parts by weight of dimethylformamide Emulsifier: 2 parts by weight of alkylaryl polyglycol ether
(§5) To produce a suitable preparation of active compound, 1 part by weight of active compound is mixed with the stated amounts of solvent and emulsifier, and the concentrate is diluted with emulsifier-containing water to the desired concentration.
Cabbage leaves (Brassica oleracea) which are heavily infested by the green peach aphid (Myzus persicae) are treated by being dipped into the active compound preparation of the desired concentration.
(§6) After the desired period of time, the kill in % is determined. 100% means that all aphids have been killed; 0% means that none of the aphids have been killed. The kill rates determined are entered into Colby's formula.

[2] = test system: larvae of the mustard beetle (Phaedon cochleariae); test: Phaedon cochleariae larvae test (cabbage leaves dipped); settings: single active compound
From the text: as §1, §2, §3, §4
To produce a suitable preparation of active compound, 1 part by weight of active compound is mixed with the stated amounts of solvents and emulsifier, and the concentrate is diluted with emulsifier-containing water to the desired concentration.
Cabbage leaves (Brassica oleracea) are treated by being dipped in the active compound preparation of the desired concentration and are populated with larvae of the mustard beetle (Phaedon cochleariae) while the leaves are still moist.
After the desired period of time, the kill in % is determined. 100% means that all beetle larvae have been killed; 0% means that none of the beetle larvae have been killed. The kill rates determined are entered into Colby's formula.

[3] = test system: cotton aphid (Aphis gossypii); test: Aphis gossypii test (cotton leaves dipped); settings: single active compound
From the text: as §1, §2, §3, §4, §5
Cotton leaves (Gossypium herbaceum) which are heavily infested by the cotton aphid (Aphis gossypii) are treated by being dipped into the active compound preparation of the desired concentration.
as §6

`C/C(=N\C#N)N(C)Cc1ccc(Cl)nc1` [acetamiprid (II-e), acetamiprid] was tested, and the “Kill in % after 6 d” value ([1]; Table A 3, 0.16 ppm) was 10%.
`CN/C(=N\[N+](=O)[O-])NCc1cnc(Cl)s1` [clothianidin (IIm), clothianidin] was tested, and the “Kill in % after 6 d” value ([2]; 0.8 ppm) was 25%.
For `CO[C@H]1CC[C@]2(CC1)NC(=O)C(c1cc(C)ccc1C)=C2O` [compound (I-1)], the “Kill in % after 6 d” value ([1]; Table A 2, 0.8 ppm) was 5% and the “Kill in % after 6 d” value ([2]; 20 ppm) was 10%.
`COC1CCC2(CC1)NC(=O)C(c1cc(C)ccc1C)=C2O` (stereo not shown) [compound (I-1-a)] was tested, and the “Kill in % after 6 d” value ([1]; Table A 2, 0.8 ppm) was 0% and the “Kill in % after 6 d” value ([2]; 20 ppm) was 20%.
With `CCOC(=O)OC1=C(c2cc(C)ccc2C)C(=O)N[C@]12CC[C@@H](OC)CC2` [compound (I-2)] the “Kill in % after 1 d” value ([1]; 4 ppm) was 0%, the “Kill in % after 6 d” value ([1]; Table A 3, 4 ppm) was 80% and the “Kill in % after 1 d” value ([3]; 20 ppm) was 5%. The “Kill in % after 6 d” value ([2]; 20 ppm) was 35%.
`CCOC(=O)OC1=C(c2cc(C)ccc2C)C(=O)NC12CCC(OC)CC2` (stereo not shown) [compound (I-2-a)] was tested, and the “Kill in % after 1 d” value ([1]; 4 ppm) was 0%, the “Kill in % after 6 d” value ([1]; Table A 3, 4 ppm) was 85% and the “Kill in % after 1 d” value ([3]; 20 ppm) was 10%. For the same molecule, the “Kill in % after 6 d” value ([2]; 20 ppm) was 10%.
With `CN/C(=N/CC1CCOC1)N[N+](=O)[O-]` (stereo not shown) [dinotefuran (II l), dinotefuran] the “Kill in % after 6 d” value ([1]; Table A 3, 0.16 ppm) was 0% and the “Kill in % after 1 d” value ([3]; 4 ppm) was 30%.
With `O=[N+]([O-])NC1=NCCN1Cc1ccc(Cl)nc1` [imidacloprid (II-a), imidacloprid] the “Kill in % after 1 d” value ([1]; 0.16 ppm) was 15%, the “Kill in % after 6 d” value ([1]; Table A 2, 0.032 ppm) was 5% and the “Kill in % after 6 d” value ([2]; 0.8 ppm) was 0%.
For `O=[N+]([O-])/N=C1\NCCN1Cc1cnc(Cl)s1` [imidaclothiz (II n), imidaclothiz], the “Kill in % after 6 d” value ([1]; Table A 3, 0.16 ppm) was 0%.
`N#C/N=C1\SCCN1Cc1ccc(Cl)nc1` [thiacloprid (IIk), thiacloprid] was tested, and the “Kill in % after 6 d” value ([2]; 0.8 ppm) was 0%.
With `CN1COCN(Cc2cnc(Cl)s2)/C1=N\[N+](=O)[O-]` [thiamethoxam (IIg), thiamethoxam] the “Kill in % after 6 d” value ([2]; 0.8 ppm) was 0%.
